Assay results from paper PMC4152014, “Glucagon-Like Peptide-1 Receptor Ligand Interactions: Structural Cross Talk between Ligands and the Extracellular Domain” (PLoS ONE, 2014).
“Also recorded” adds a separate entry of the source.

What was measured:
[1] = system: nGLP-1R (N-terminal extracellular domain of GLP-1R, amino acids 24-145); test: Differential HDX of the nGLP-1R peptide […] in the presence of ligands; format: binding; details: HDX-MS; for average change in % Deuterium (Δ %D) in nGLP-1R peptide WETVQKWRE: 7TM HDX buffer pH 7.5 (50 mM Hepes, 150 mM NaCl, 2% glycerol, 0.05% DDM, 0.01% CHS), stock 10 µM nGLP-1R, peptide ligands 20 µM or small molecules 100 µM, 1 h equilibration at 4°C, on-exchange 10-3600 s, 80% D2O, 4°C, 3-4 replicates, back exchange corrected with estimated 70% recovery; for protection to exchange of nGLP-1R (result in words): peptides spanning Trp32 to Glu40 of nGLP-1R, DDM/CHS micelles, pH 7.5, 4°C, significance P < 0.05 at two consecutive time points
Source text: (§1) Exendin-4 (cat # E7144), HPLC grade H2O, D2O (99.9%), acetonitrile, formic acid, tris-(carboxyethyl)-phosphinehydrochloride (TCEP), NaCl, NaH2PO4 and glycerol were purchased from Sigma-Aldrich. Exendin-4[9-39] […] The GLP-1R ligands 6-BPPI (6-(2,5-dichlorobenzyl)-1-hydroxy-2-(2-morpholin-4-ylethyl)-1,6-dihydropyrrolo[3′,4′:5,6]pyrido[3,4-B]indol-3(2H)-one), Boc-5 [23], T-0632 (sodium (S)-3-[1-(2-fluorophenyl)-2,3-dihydro-3-[(3-isoquinolinyl-carbonyl)amino]-6-methoxy-2-oxo-1H-indole]propanoate), [25] and TT15 (2S)-2-[[(8S)-7-benzoyl-3-[4-[(3,4-dichlorophenyl)methoxy]phenyl]-2-oxo-1,6,8,9-tetrahydropyrido[4,3-g][1,4]benzoxazine-8-carbonyl]amino]-3-[4-(4-cyanophenyl)phenyl]propanoic acid) were synthesized according to standard or published methods at Eli Lilly. Trifluoroacetic acid (TFA, Sequanal grade) was obtained from Pierce. High purity n-dodecyl-β-D-maltoside (DDM) and cholesterol hemisuccinate (CHS) were purchased from Avanti Polar Lipids. The porcine pepsin-immobilized POROS 20 AL beads (particle size 20 µm) used to pack immobilized pepsin columns were purchased from Applied Biosystems. The model peptide for gas phase scrambling experiments, […], was purchased from the American Peptide Company (#350416).

[2] = target: T1, wild-type GLP-1R (NP_002053) (Homo sapiens, UniProt P43220); test: cAMP accumulation in HEK293 cells transfected with wild-type GLP-1R; format: cell-based; details: for IC50: IC50, antagonism of GLP-1 induced cAMP accumulation
T1 construct: HEK293 cells were transfected with plasmids expressing either wild-type GLP-1R (NP_002053); expressed in transfected cells; host or cells: HEK293
Experimental: (§2) cAMP accumulation assays were performed as previously described. HEK293 cells were transfected with plasmids expressing either wild-type GLP-1R (NP_002053) or chimera nGIP-R:GLP-1R (amino acids 1-124 of GIP-R (NP_000155) fused in-frame with amino acids 137-463 of GLP-1R).
(§3) Figure 4 Changes to HDX of nGLP-1R in the Presence of Peptide and Small Molecule Ligands. […] Deuterium exchange was measured in the presence of DDM/CHS micelles as indicated in the Experimental section The exendin-4[9-39] peptide ligand is colored gray. B) Table showing the average change in % Deuterium in this same nGLP-1R peptide ([…]) for four peptide ligands and four proposed small molecule ligands.

[3] = system: chimera nGIP-R:GLP-1R (amino acids 1-124 of GIP-R (NP_000155) fused in-frame with amino acids 137-463 of GLP-1R); test: cAMP accumulation in HEK293 cells transfected with chimera nGIP-R:GLP-1R; format: cell-based; details: GIPR/GLP-1R chimera, EC50 to EC80 concentrations of GLP-1
Experimental: as §2, §3

[4] = system: nGLP-1R (N-terminal extracellular domain of GLP-1R, amino acids 24-145); test: Differential HDX of peptide ligands in the presence vs absence of nGLP-1R; format: binding; details: HDX-MS, stock 10 µM peptide with or without 20 µM nGLP-1R, DDM/CHS micelles, pH 7.5, 4°C; for protection to exchange of ligand amides near helix bend / FxxWL motif upon binding nGLP-1R: 10-3600 s, protection confined from Ala18 to Asn28
Source text: as §1

[5] = pH 7.5
Experimental: All stock solutions and dilutions were made using the 7TM HDX buffer. The 7TM HDX buffers were composed of 50 mM Hepes (pH 7.5), 150 mM NaCl, 2% (v/v) glycerol, 0.05% (m/v) DDM, and 0.01% (m/v) CHS in either H2O or in D2O for on-exchange. All HDX stock solutions of the N-terminal extracellular domain of the glucagon-like peptide-1 receptor (nGLP-1R) were prepared at 10 µM nGLP-1R in the 7TM HDX H2O buffer. […] All HDX stock solutions of the peptides were at 10 µM. When ligands were studied in the presence of the nGLP-1R the stock solutions contained 20 µM nGLP-1R. When ligands and receptor were mixed in stock solutions they were allowed to equilibrate for one hour at 4°C.
Solution-phase amide HDX was carried out with a fully automated system described previously [17]. […]
Mass spectra were acquired in the range of m/z 300–2000 at a resolution of 60,000 for 8 min in positive ion mode on an LTQ Orbitrap XL ETD mass spectrometer (Thermo Fisher Scientific) equipped with an ESI source operated at capillary temperature of 225°C and spray voltage of 3.5 kV. The intensity weighted average m/z value (centroid) of each peptide's isotopic envelope was calculated with in-house developed software; Workbench (Pascal et al. 2013) and converted to % Deuterium values. […]

[6] = system: extracellular domain of GLP-1R; details: cited from earlier work
[7] = system: nGLP-1R (N-terminal extracellular domain of GLP-1R, amino acids 24-145); test: Single amino acid resolution HDX by ETD of Phe22-Ser39 peptic peptide; format: binding; details: DDM/CHS micelles
Experimental: To optimize the instrument parameters and to monitor gas-phase scrambling, we employed the model peptide […] described by the Jorgensen group. Complete deuteration was achieved by incubation of the peptide in deuterated buffer (20 mM NaH2PO4, pH 2.6) for one hour at 4°C. HDX off-exchange was initiated by a 10-fold dilution into infusion buffer (50% MeOH, 0.5 M CH3COOH, pH 2.6) followed by elution over the same LC configuration used for HDX after 30 s of off-exchange. Under these conditions the peptide eluted in ∼1.6 minutes. Full-scan and ETD MS/MS spectra were acquired on the LTQ Orbitrap XL ETD. Instrument conditions were identical to those published previously except the capillary temperature was set to 75°C. Varying isolation widths and capillary temperatures were tested to minimize scrambling and maintain ion signal intensity (Figure S3). A capillary temperature of 75°C and isolation width of 12 amu was used for ETD of exendin-4[9-39]. Five replicates were run after 30 s of deuterium exchange for exendin-4[9-39] in the presence and absence of nGLP-1R on the same LC configuration described above.

[8] = 30 s of exchange, apo vs nGLP-1R bound, 5 replicates

T1 sequence (P43220 24-463): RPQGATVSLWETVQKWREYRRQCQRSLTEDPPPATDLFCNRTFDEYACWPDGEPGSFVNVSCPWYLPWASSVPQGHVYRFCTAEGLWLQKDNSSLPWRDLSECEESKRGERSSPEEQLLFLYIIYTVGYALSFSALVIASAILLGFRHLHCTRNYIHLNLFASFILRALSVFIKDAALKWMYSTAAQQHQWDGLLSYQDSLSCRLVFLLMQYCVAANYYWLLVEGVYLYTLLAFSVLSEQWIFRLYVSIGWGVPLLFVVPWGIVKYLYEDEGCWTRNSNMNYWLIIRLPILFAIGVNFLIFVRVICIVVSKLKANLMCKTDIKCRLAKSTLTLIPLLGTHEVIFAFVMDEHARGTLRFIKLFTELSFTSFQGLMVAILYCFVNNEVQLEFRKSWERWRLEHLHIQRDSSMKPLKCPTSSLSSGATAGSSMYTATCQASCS

Compound	average change in % Deuterium (Δ %D) in nGLP-1R peptide WETVQKWRE [1]	protection to exchange of nGLP-1R (result in words) [1]	protection to exchange of ligand amides near helix bend / FxxWL motif upon binding nGLP-1R [4]	deuterium incorporation / stability of hydrogen bonding network of the free peptide [5]	affinity for extracellular domain of GLP-1R (in words) [6]	other results
O=C1c2ncc3c(c2C(O)N1CCN1CCOCC1)c1ccccc1n3Cc1cc(Cl)ccc1Cl (centres unmarked) [6-BPPI, 6-(2,5-dichlorobenzyl)-1-hydroxy-2-(2-morpholin-4-ylethyl)-1,6-dihydropyrrolo[3′,4′:5,6]pyrido[3,4-B]indol-3(2H)-one]	-27%	thermodynamic stabilizing interactions				antagonism of GLP-1 signalling (result in words) ([2]; HEK293 cells, EC50 to EC80 concentrations of GLP-1): Dose-dependent blockade of GLP-1R signalling; also recorded: effective antagonist of the GLP-1R; IC50 ([2]; 10 pM GLP-1, HEK293 cells): 33 nM; IC50 ([2]; 30 pM GLP-1, HEK293 cells): 110 nM; IC50 ([2]; 100 pM GLP-1, HEK293 cells): 310 nM; antagonism of GLP-1 signalling (result in words) [3]: not GIPR/GLP-1R; also recorded: inactive on a chimeric receptor
COc1cc(C2C(NC(=O)c3ccc(NC(=O)OC(C)(C)C)cc3)(C(=O)O)C(c3ccc(OC(=O)c4cccs4)c(OC)c3)C2(NC(=O)c2ccc(NC(=O)OC(C)(C)C)cc2)C(=O)O)ccc1OC(=O)c1cccs1 (centres unmarked) [Boc-5]	-12%	thermodynamic stabilizing interactions				
exendin-4: GLP-1R peptide agonist, Sigma-Aldrich cat # E7144; DPP4 resistant mimetic	-21%	significant protection to exchange	showed protection to their hydrogen bonding network around the FxxWL motif	Lower deuterium incorporation was observed for all homologous peptides	high affinity	change in deuterium exchange at N-terminal amino acids His1 to Glu17 upon binding nGLP-1R [4]: no statistically significant change in the magnitude of deuterium exchange
exendin-4[9-39]: N-terminal truncated exendin-4, a potent antagonist; Bachem cat # H-8740	-20%	significant protection to exchange	showed protection to their hydrogen bonding network around the FxxWL motif	significantly destabilized in the presence of nonionic detergents as compared to the agonist exendin-4	high affinity	deuterium incorporation for fragments from Trp25 to Asn28, absence of nGLP-1R ([7]; 30 s of exchange, apo state, 5 replicates): increasing deuterium incorporation for fragments from Trp25 to Asn28; change in deuterium incorporation at Asn28 turn in the presence of nGLP-1R [7, 8]: small but statistically significant increase in deuterium incorporation; protection at Trp25, Leu26 and Lys27 by nGLP-1R [7, 8]: Significant protection; deuterium exchanged at amide of Asn28 in the presence of nGLP-1R ([7]; exendin-4[9-39] with nGLP-1R, after 30 s of exchange, average of 5 replicates): 0.33 deuterium
oxyntomodulin: peptide agonist, Bachem #H-6058	-10%	protection to exchange was observed				
